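Cultured in 96-well plates, cells were exposed to test compound for 48 hours across five concentrations. Here, GI50 denotes the concentration required for 50% inhibition of growth.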 Active and inactive are the calls of the source. Rule as the data show it: active = GI50 up to about 1.1 µM and inactive = higher.
How the values were obtained:
Assay in all cases: NCI anticancer screen, dose series, 48 h
[1] = tested on: KM-20L2
[2] = tested on: Malme-3M
[3] = tested on: DMS-273
[4] = tested on: SF-295
[5] = tested on: NCI-H522
[6] = tested on: NCI-H226
[7] = tested on: HOP-62
[8] = tested on: SNB-78
[9] = tested on: OVCAR-8
[10] = tested on: SK-MEL-5
[11] = tested on: OVCAR-3
[12] = tested on: SK-MEL-28
[13] = tested on: HOP-92
[14] = tested on: ACHN
[15] = tested on: SF-539
[16] = tested on: COLO 205
[17] = tested on: T47D
[18] = tested on: MCF7
[19] = tested on: BT-549
[20] = tested on: MDA-N

| SMILES | GI50 [1] | GI50 [2] | GI50 [3] | GI50 [4] | GI50 [5] | GI50 [6] | GI50 [7] | GI50 [8] | GI50 [9] | GI50 [10] | GI50 [11] | GI50 [12] | GI50 [13] | GI50 [14] | GI50 [15] | GI50 [16] | GI50 [17] | GI50 [18] | GI50 [19] | GI50 [20] |
| --- | --- | --- | --- | --- | --- | --- | --- | --- | --- | --- | --- | --- | --- | --- | --- | --- | --- | --- | --- | --- |
| O=C(CC1Sc2ccccc2NC1=O)Nc1ccc(Cl)cc1 (configuration not stated) | 89.1 µM (inactive) | 46.2 µM (inactive) | 83.4 µM (inactive) | > 100 µM (inactive) | > 100 µM (inactive) | > 100 µM (inactive) | > 100 µM (inactive) | > 100 µM (inactive) | 37.9 µM (inactive) | > 100 µM (inactive) | > 100 µM (inactive) | > 100 µM (inactive) | 19.6 µM (inactive) | 26.5 µM (inactive) | 50.2 µM (inactive) | > 100 µM (inactive) | – | – | – | – |
| CS(=O)(=O)OCCCNCCCOS(C)(=O)=O | 1990 µM (inactive) | 1590 µM (inactive) | 328 µM (inactive) | 526 µM (inactive) | 1850 µM (inactive) | 1680 µM (inactive) | 729 µM (inactive) | 2100 µM (inactive) | 1650 µM (inactive) | 1550 µM (inactive) | 2630 µM (inactive) | 2440 µM (inactive) | 957 µM (inactive) | 392 µM (inactive) | 1270 µM (inactive) | 1730 µM (inactive) | 573 µM (inactive) | 679 µM (inactive) | 1270 µM (inactive) | 2350 µM (inactive) |
| CCn1c(=O)c(C(=O)O)c(Cl)c2cc3c(cc21)OCO3 | > 100 µM (inactive) | > 100 µM (inactive) | > 100 µM (inactive) | > 100 µM (inactive) | > 100 µM (inactive) | > 100 µM (inactive) | > 100 µM (inactive) | > 100 µM (inactive) | > 100 µM (inactive) | > 100 µM (inactive) | > 100 µM (inactive) | > 100 µM (inactive) | > 100 µM (inactive) | – | > 100 µM (inactive) | > 100 µM (inactive) | – | > 100 µM (inactive) | – | – |
| CC1CC(C)(O)C2C3(C)CCCC2(COC3=O)C12CCC1(CCOC1=O)O2 (configuration not stated) | > 250 µM (inactive) | > 250 µM (inactive) | > 250 µM (inactive) | > 250 µM (inactive) | > 250 µM (inactive) | > 250 µM (inactive) | > 250 µM (inactive) | > 250 µM (inactive) | > 250 µM (inactive) | > 250 µM (inactive) | > 250 µM (inactive) | > 250 µM (inactive) | > 250 µM (inactive) | – | > 250 µM (inactive) | > 250 µM (inactive) | – | > 250 µM (inactive) | – | – |
| CC1=C(C(=O)NCc2ccccc2)C(c2ccco2)C(C(=O)NCc2ccccc2)=C(C)N1 | 32.5 µM (inactive) | > 100 µM (inactive) | 66.8 µM (inactive) | 56.9 µM (inactive) | 85.1 µM (inactive) | > 100 µM (inactive) | 65.3 µM (inactive) | > 100 µM (inactive) | 78.5 µM (inactive) | > 100 µM (inactive) | > 100 µM (inactive) | > 100 µM (inactive) | 92.9 µM (inactive) | 31.5 µM (inactive) | > 100 µM (inactive) | > 100 µM (inactive) | – | – | – | – |
| CC1(C)N=C(N)N=C(N)N1c1ccc(CCc2ccccc2)cc1 | 1.16 µM (inactive) | 2.2 µM (inactive) | 0.7 µM (active) | 2.17 µM (inactive) | 3.03 µM (inactive) | 14.2 µM (inactive) | – | 13.6 µM (inactive) | 2.53 µM (inactive) | 0.741 µM (active) | 1.79 µM (inactive) | 6.01 µM (inactive) | 22.1 µM (inactive) | – | 2.78 µM (inactive) | 1.36 µM (inactive) | – | 1.32 µM (inactive) | – | – |
| OCC1OC(n2cnc3c2NC=NC[C@H]3O)C(O)C1O (some centres not stated) | 444 µM (inactive) | > 355 µM (inactive) | 303 µM (inactive) | > 450 µM (inactive) | 312 µM (inactive) | 173 µM (inactive) | > 337 µM (inactive) | > 450 µM (inactive) | > 450 µM (inactive) | > 71.3 µM (inactive) | > 450 µM (inactive) | > 450 µM (inactive) | > 192 µM (inactive) | – | > 450 µM (inactive) | > 450 µM (inactive) | – | > 450 µM (inactive) | – | – |
| Cc1c2ccncc2c(C)c2c1[nH]c1ccccc12 [ELLIPTECINE] | 0.548 µM (active) | 2.01 µM (inactive) | 0.378 µM (active) | 0.805 µM (active) | 1.16 µM (inactive) | 1.42 µM (inactive) | 0.818 µM (active) | 1.48 µM (inactive) | 0.406 µM (active) | 0.944 µM (active) | 0.322 µM (active) | 1.5 µM (inactive) | 0.538 µM (active) | – | 0.867 µM (active) | 0.502 µM (active) | – | 0.571 µM (active) | – | – |
| CC(C)c1oc(=O)cc2c1C(O)C1OC(=O)C3(C)C(O)C4OC4C2(C)C13 (configuration not stated) [NAGILACTONE] | 1.63 µM (inactive) | 1.69 µM (inactive) | 0.966 µM (active) | 1.65 µM (inactive) | 1.15 µM (inactive) | 2.16 µM (inactive) | 2.15 µM (inactive) | 6.25 µM (inactive) | 1.75 µM (inactive) | 0.628 µM (active) | 1.41 µM (inactive) | 1.37 µM (inactive) | 0.7 µM (active) | – | 0.989 µM (active) | 1.13 µM (inactive) | – | 0.728 µM (active) | – | – |
